Source: article PMC7730235, “Discovery of a Novel Class of Covalent Dual Inhibitors Targeting the Protein Kinases BMX and BTK” (International Journal of Molecular Sciences, 2020)

Key:
[1] = target: T1, TXK (Homo sapiens, UniProt P42681); test: Radiometric kinase assay (Reaction Biology HotSpot); type: biochemical; conditions: radiometric HotSpot, five-dose singlicate, [ATP] = 10 μM
T1 construct: purchased Reaction Biology Corporation
T1 sequence (P42681 1-527): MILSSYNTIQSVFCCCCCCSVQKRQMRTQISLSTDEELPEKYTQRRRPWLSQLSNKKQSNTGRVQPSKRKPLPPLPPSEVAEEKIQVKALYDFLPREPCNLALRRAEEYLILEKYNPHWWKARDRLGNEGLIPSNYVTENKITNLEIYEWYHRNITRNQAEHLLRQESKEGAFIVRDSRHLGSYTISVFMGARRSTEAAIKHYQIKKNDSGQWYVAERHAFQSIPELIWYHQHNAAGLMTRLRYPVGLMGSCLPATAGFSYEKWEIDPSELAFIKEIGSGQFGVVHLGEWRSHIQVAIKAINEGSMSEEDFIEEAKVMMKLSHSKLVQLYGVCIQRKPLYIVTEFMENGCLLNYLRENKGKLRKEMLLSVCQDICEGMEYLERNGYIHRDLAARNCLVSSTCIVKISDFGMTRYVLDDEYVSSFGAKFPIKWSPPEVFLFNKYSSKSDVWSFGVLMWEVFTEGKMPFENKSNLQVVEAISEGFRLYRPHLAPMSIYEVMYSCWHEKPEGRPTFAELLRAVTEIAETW
Description: (§1) If not mentioned differently, in vitro profiling of compounds was performed at Reaction Biology Corporation using the HotSpot™ assay platform.

[2] = target: T2, BMX (Homo sapiens, UniProt P51813); test: as above; type: biochemical; conditions: radiometric HotSpot, five-dose singlicate, [ATP] = 10 μM
T2 construct: purchased Reaction Biology Corporation
T2 sequence (P51813 1-675): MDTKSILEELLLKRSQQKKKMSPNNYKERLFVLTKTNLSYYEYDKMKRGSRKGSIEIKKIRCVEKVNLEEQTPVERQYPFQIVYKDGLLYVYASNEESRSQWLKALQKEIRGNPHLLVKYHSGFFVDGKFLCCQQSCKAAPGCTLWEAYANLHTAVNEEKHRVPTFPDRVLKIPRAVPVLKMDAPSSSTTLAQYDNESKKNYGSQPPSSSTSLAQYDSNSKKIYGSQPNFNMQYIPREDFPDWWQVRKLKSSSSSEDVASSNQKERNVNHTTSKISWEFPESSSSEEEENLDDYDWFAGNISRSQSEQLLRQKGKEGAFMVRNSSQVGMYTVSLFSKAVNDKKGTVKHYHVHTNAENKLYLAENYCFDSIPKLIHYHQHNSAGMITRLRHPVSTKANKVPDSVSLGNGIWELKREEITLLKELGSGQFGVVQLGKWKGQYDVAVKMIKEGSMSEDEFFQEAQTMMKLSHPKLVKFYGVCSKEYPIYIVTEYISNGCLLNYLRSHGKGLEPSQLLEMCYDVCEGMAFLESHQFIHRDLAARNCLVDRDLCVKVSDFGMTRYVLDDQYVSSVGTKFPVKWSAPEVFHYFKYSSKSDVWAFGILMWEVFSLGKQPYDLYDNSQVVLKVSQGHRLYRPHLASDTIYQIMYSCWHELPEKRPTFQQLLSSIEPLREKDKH
Description: as §1

[3] = target: T3, kinase domain of BMX (Homo sapiens, UniProt P51813); test: Mass spectrometric investigation of covalent binding to BMX (ESI-TOF); conditions: 4 °C; for covalent labeling of BMX (in words): 1.5-fold molar excess, complete labeling refers to 30 min
T3 construct: The kinase domains of JAK3 and BMX at 2 μM
Description: The kinase domain of BMX was diluted to 0.05 mM with buffer containing 20 mM Tris pH 8.0, 200 mM NaCl, 0.5 mM TCEP (pH 7.0) and was subsequently mixed with 0.075 mM inhibitors (ratio of protein to inhibitor of 1:1.5). The mixture was incubated at 4°C. The samples were taken at different time points, the reaction stopped by diluting the sample with a 200-fold excess of 1% formic acid. The denatured protein and the adducts were assessed using electrospray time-of-flight (ESI-TOF) mass spectrometry.

[4] = target: T4, Full length BMX (C-terminal NanoLuc fusion) (Homo sapiens, UniProt P51813); test: Cellular NanoBRET target engagement assay in HEK293T cells; type: cell-based; conditions: 0.5 µM Tracer K4, 2 h incubation
T4 construct: Full length BMX and BTK was cloned into pFC32K; expressed in transfected cells; host or cells: HEK293T
T4 sequence (P51813 1-675): T2 sequence (P51813 1-675)
Description: (§2) Full length BMX and BTK was cloned into pFC32K (Promega, Madison, WI, USA) for expression of a C-terminal NanoLuc fusion. The plasmids were transfected into HEK293T cells cultured in DMEM (Gibco, Waltham, MA, USA) supplemented with 10% fetal bovine serum (Gibco, Waltham, MA, USA) and Penicillin/Streptamycin (Gibco, Waltham, MA, USA). NanoBRET assays were performed using the protocol published previously. Briefly, after transfection and 20 h incubation cells were harvested and subsequently resuspended in OptiMEM (Gibco, Waltham, MA, USA). Cells were aliquoted onto […] (Greiner, Kremsmünster, Austria), and inhibitors as well as 0.5 µM Tracer K4 (Promega) for BMX or 0.5 µM Tracer K5 (Promega, Madison, WI, USA) for BTK were added using an ECHO acoustic dispenser. The plates were incubated at 37 °C with 5% CO2 for 2 h prior to the addition of both NanoBRET NanoGlo substrate (Promega, Madison, WI, USA) and extracellular NanoLuc inhibitor. BRET luminescence (450 nm for donor emission and 610 nm for BRET signal) was measured using PHERAstar FSX plate reader (BMG Labtech, Ortenberg, Germany). Milli-BRET units (mBU) were calculated as a ratio between BRET signal and the overall measured luminescence. A dose–response fitting was applied and IC50 values were calculated using the Prism software. […] Experiments were performed as tripicates and repeated at least three times.

[5] = target: T5, Full length BTK (C-terminal NanoLuc fusion) (Homo sapiens, UniProt Q06187); test: as above; type: cell-based; conditions: 0.5 µM Tracer K5, 2 h incubation
T5 construct: Full length BMX and BTK was cloned into pFC32K; expressed in transfected cells; host or cells: HEK293T
Description: as §2

[6] = target: T6, JAK3 (Homo sapiens, UniProt P52333); test: Radiometric kinase assay (Reaction Biology HotSpot); type: biochemical; conditions: radiometric HotSpot, five-dose singlicate, [ATP] = 10 μM
T6 construct: purchased Reaction Biology Corporation
T6 sequence (P52333 1-1124): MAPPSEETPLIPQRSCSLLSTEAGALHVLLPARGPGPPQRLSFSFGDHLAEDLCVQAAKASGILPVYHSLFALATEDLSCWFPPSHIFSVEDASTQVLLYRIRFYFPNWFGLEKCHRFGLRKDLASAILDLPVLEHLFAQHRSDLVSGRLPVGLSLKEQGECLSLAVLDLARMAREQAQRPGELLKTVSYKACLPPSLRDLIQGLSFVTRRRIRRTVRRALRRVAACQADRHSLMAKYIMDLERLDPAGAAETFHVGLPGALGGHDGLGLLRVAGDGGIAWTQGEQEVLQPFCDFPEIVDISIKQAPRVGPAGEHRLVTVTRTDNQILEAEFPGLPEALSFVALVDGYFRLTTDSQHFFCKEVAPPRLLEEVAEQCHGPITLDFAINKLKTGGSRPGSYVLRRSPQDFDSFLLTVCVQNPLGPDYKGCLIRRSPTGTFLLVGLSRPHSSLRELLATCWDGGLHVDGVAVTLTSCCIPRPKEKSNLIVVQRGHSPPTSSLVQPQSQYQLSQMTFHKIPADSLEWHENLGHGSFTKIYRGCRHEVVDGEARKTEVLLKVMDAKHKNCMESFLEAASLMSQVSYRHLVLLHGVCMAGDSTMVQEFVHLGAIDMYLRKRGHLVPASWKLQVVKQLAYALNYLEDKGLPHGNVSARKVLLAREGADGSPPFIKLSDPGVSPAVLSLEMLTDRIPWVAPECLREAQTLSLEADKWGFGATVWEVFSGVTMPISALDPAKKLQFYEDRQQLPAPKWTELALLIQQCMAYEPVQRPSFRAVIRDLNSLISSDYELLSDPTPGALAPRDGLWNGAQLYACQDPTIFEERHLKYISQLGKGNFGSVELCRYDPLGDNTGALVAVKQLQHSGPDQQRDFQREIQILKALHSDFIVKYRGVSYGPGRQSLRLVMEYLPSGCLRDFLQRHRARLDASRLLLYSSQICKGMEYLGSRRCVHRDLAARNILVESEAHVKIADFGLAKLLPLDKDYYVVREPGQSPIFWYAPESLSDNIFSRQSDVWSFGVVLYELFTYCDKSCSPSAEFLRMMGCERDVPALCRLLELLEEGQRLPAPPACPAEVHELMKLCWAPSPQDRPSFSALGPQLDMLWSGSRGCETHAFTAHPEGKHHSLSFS
Description: as §1

[7] = target: T3, kinase domain of BMX; test: Thermal shift (ΔTm) assay; type: binding; conditions: 2 μM kinase domain, 10 μM inhibitor; mean ± SD of at least three measurements
Description: (§3) The kinase domains of JAK3 and BMX at 2 μM were mixed with the inhibitors at 10 μM, and subsequently SyPRO orange dye (Invitrogen Carlsbad, CA, USA) was added. The thermal shift assay and data evaluation were performed as described previously using a Real-Time PCR Mx3005p machine (Stratagene, La Jolla, CA, USA).

[8] = target: T7, kinase domain of JAK3 (Homo sapiens, UniProt P52333); test: Thermal shift (ΔTm) assay; type: binding; conditions: 2 μM kinase domain, 10 μM inhibitor; mean ± SD of at least three measurements
T7 construct: The kinase domains of JAK3 and BMX at 2 μM; made in house
Description: as §3

[9] = 1.5-fold molar excess of inhibitor, 30 min
[10] = 1.5-fold molar excess of inhibitor, 60 min
[11] = 1.5-fold molar excess of inhibitor, 120 min
[12] = 1.5-fold molar excess of inhibitor, 240 min

T5 sequence (Q06187 whole entry, the tested form may be a part): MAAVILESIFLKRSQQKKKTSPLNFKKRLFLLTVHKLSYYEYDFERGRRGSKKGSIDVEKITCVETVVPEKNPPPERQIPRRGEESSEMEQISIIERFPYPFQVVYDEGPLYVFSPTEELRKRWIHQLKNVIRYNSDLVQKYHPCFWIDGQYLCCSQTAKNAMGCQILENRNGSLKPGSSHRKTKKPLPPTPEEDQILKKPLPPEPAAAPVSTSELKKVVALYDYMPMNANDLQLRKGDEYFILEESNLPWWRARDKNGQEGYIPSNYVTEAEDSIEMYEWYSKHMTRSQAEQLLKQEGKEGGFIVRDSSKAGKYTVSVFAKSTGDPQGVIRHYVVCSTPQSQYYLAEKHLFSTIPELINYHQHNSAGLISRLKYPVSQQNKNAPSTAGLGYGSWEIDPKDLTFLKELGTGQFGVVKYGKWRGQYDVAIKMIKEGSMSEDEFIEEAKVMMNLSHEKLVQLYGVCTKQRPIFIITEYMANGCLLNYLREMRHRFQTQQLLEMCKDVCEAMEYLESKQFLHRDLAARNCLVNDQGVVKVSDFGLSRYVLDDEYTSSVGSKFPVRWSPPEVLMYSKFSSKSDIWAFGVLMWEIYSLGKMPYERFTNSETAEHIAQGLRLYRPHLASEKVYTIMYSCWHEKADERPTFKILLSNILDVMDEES

SMILES	IC50 [1] [nM]	IC50 [2] [nM]	native (unmodified) BMX fraction, 30 min [3, 9] [%]	native (unmodified) BMX fraction, 60 min [3, 10] [%]	native (unmodified) BMX fraction, 120 min [3, 11] [%]	native (unmodified) BMX fraction, 240 min [3, 12] [%]	covalent labeling of BMX (in words) [3]	IC50 [4] [nM]	IC50 [5] [nM]	IC50 [6] [nM]	ΔTm at 10 µM [7] [°C]	ΔTm at 10 µM [8] [°C]	BMX covalent adduct fraction, 30 min [3, 9] [%]	BMX covalent adduct fraction, 60 min [3, 10] [%]	BMX covalent adduct fraction, 120 min [3, 11] [%]	BMX covalent adduct fraction, 240 min [3, 12] [%]
CCC(=O)Nc1cccc(-c2c[nH]c3ncc(C(=O)NC4CCCC4)cc23)c1 [Compound 11b, N-cyclopentyl-3-(3-propionamidophenyl)-1H-pyrrolo[2,3-b]pyridine-5-carboxamide]	> 10000	> 10000	100	100	100	100	no modification was detectable	> 10000	3710 ± 1200							
C=CC(=O)Nc1cccc(-c2c[nH]c3ncc(NC(=O)CC4CCCC4)cc23)c1 [Compound 12g, N-(3-(5-(2-cyclopentylacetamido)-1H-pyrrolo[2,3-b]pyridin-3-yl)phenyl)acrylamide]		6			1		complete labeling	3 ± 1	13 ± 2	> 10000	11.88 ± 0.07	11.9 ± 0.23	100	100	99	100
